According to article PMC7176092, “Development of the first in vivo GPR17 ligand through an iterative drug discovery pipeline: A novel disease-modifying strategy for multiple sclerosis” (PLoS ONE, 2020):
“And” between values parts separate entries of the source, which are not always exact repeats. Equal values may be shown once. Read-outs that look alike come from different tables or passages of the source.

What was measured:
APJ = molecular target: T1, APJ (Homo sapiens, UniProt P35414); test: Binding assay APJ; conditions: 100 nM
T1 construct: Eurofins Cerep (external service)
T1 sequence (P35414 1-380): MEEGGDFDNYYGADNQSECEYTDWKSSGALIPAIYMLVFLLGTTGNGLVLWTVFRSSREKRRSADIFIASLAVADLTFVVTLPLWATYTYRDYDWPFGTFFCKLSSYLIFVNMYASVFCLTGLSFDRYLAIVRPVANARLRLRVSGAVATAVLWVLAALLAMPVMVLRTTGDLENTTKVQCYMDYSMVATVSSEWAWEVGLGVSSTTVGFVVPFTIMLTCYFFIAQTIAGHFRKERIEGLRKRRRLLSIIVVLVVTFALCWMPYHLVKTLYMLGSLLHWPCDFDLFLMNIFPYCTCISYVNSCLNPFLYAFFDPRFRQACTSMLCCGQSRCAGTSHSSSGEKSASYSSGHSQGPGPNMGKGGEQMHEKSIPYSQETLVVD

CCR1 = molecular target: T2, CCR1 (Homo sapiens, UniProt P32246); test: Binding assay CCR1; conditions: 100 nM
T2 construct: Eurofins Cerep (external service)
T2 sequence (P32246 1-355): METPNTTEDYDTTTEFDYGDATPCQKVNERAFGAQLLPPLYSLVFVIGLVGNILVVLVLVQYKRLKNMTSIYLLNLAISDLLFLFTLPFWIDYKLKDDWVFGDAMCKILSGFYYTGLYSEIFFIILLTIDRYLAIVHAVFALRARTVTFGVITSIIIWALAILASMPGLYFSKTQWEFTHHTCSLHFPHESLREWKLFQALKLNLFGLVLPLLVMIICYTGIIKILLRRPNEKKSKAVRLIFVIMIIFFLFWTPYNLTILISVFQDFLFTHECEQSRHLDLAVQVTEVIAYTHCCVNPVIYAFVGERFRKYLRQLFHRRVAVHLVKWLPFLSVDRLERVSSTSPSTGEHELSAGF

P2Y = test: Binding assay P2Y; design: species or system human; conditions: 100 nM
CCR5 = CCR5 (Homo sapiens, UniProt P51681); test: Cellular functional assay CCR5
Chain of CCR5 (P51681 whole entry): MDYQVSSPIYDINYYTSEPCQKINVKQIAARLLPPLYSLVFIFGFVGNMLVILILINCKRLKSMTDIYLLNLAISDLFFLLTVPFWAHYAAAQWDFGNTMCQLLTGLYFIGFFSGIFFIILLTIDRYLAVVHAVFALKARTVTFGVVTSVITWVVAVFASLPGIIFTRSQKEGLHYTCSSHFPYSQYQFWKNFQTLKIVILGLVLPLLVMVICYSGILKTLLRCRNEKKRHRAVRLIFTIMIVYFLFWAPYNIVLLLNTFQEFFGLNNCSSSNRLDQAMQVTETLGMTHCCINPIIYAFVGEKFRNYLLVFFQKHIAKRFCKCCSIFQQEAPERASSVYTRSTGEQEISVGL

[1] = mean of 2, read-out: % Of control specific binding, Mean
[2] = read-out: % Inhibition of control specific binding
[3] = single replicates 1 and 2, 0.1 µM
[4] = single replicates 1 and 2, read-out: % Of control specific binding

## Cc1ccc(-c2nnc(SCC(=O)Nc3nccs3)[nH]2)cc1 [Compound 9]
APJ; [1]
  remaining activity at 0.1 µM: 107%
APJ; [2]
  inhibition at 0.1 µM: -7%
APJ; [3]
  % Of control specific binding: 105.7%
APJ; [4]
  remaining activity at 0.1 µM: 108%
CCR1; [1]
  remaining activity at 0.1 µM: 108%
CCR1; [2]
  inhibition at 0.1 µM: -8%
CCR1; [3]
  % Of control specific binding: 109%
CCR1; [4]
  remaining activity at 0.1 µM: 108%
P2Y
  % Inhibition of control specific binding: -28%
P2Y; mean of 2
  % Of control specific binding, Mean: 128.2%
P2Y; [3]
  % Of control specific binding: 120.7% and 135.7%
CCR5; CCR5, read-out: % Inhibition of control agonist response
  inhibition at 0.1 µM: -1.5%
CCR5; CCR5, read-out: Agonist Response (% of Control), Mean, antagonist effect, 100 nM, mean of 2
  activity at 0.1 µM: 126%
CCR5; antagonist effect, 100 nM, single replicates 1st and 2nd, 0.1 µM
  Agonist Response (% of Control): 140.8% and 112.0%
